Values of other authors in patent publication US20190045778A1, “EMULSIFIABLE CONCENTRATES” (priority 2016, published 2019).
Read-outs that look alike come from different tables or passages of the source.

Compound	Water Solubility (at 20° C.) [g/L at 20 °C]	Water Solubility (at 25° C.) [g/L at 25 °C]
N#C/N=C1/SCCN1Cc1ccc(Cl)nc1 [thiacloprid]	0.1	
CN/C(=N\[N+](=O)[O-])NCc1cnc(Cl)s1 [clothianidin]	0.33	
thiamethoxam		4.1
